According to patent US20210315869A1, “COMPOUNDS AND METHODS FOR CSK MODULATION AND INDICATIONS THEREFOR” (Plexxikon Inc., priority 2020, published 2021):

How the values were obtained:
[1] = molecular target: T1, CSK (Homo sapiens, UniProt P41240); assay: Human CSK enzymatic assay (AlphaScreen, Poly (Glu4-Tyr) substrate); assay type: biochemical; details: 100 uM ATP; read-out: CSK IC50 (μM) COFACTOR: 100 uM ATP
T1 construct: purchased Thermo Fisher
Method: This assay measures the ability of CSK to phosphorylate a biotinylated peptide containing multiple tyrosine residues in vitro. The CSK enzyme was purchased from Thermo Fisher. The biotinylated Poly (Glu4-Tyr) peptide substrate was purchased from Sigma-Aldrich. The CSK enzyme assay was performed using 0.75 ng CSK enzyme and 30 nM Poly (Glu4-Tyr) substrate in the presence of 25 mM Hepes pH 7.5, 5 mM Mg Acetate, 0.1% NP-40, 1 mM DTT, 0.01% BSA, and 100 μM ATP. A 19 μL volume of the above reaction mixture was added to wells of 384-well AlphaPlate (PerkinElmer GA, USA) containing 1 μL of various concentrations of test compound or DMSO vehicle and incubated for 60 minutes at room temperature. 16 wells containing all the components of reaction mixture and 5% DMSO serve as high control. 16 wells containing all the components except ATP of reaction mixture and 5% DMSO served as low control. The enzymatic reaction was stopped by the addition of 5 μL stop/detection mixture containing 25 mM Hepes pH 7.5 100 mM EDTA, and 5 μg/mL streptavidin-coated AlphaScreen donor beads (PerkinElmer GA, USA) and incubated for 20 minutes. A 5 μL mixture containing 25 mM Hepes pH 7.5, 100 mM EDTA, and 5 μg/mL anti-phosphotyrosine antibody PY20-coated AlphaScreen acceptor beads (PerkinElmer GA, USA) was added and the plate was incubated for 1 hour at room temperature. The streptavidin donor beads bind to the biotin moiety on the biotinylated Poly (Glu4-Tyr) substrate and the PY20 antibody-coated acceptor beads bind to tyrosine residues on the substrate that have been directly phosphorylated by CSK. Upon excitation of these beads with laser light at 680 nm, singlet oxygen was produced. This singlet oxygen was rapidly quenched, unless the AlphaScreen PY20 acceptor beads are in close proximity, in which case a proximity signal can be measured at 580 nm. In the presence of catalytic activity, there was a very strong proximity signal. Selective CSK inhibitors affect a decrease in this proximity signal through a decrease in phosphorylation of the Poly (Glu4-Tyr) substrate. The percentage of inhibition at individual concentrations relative to high and low controls was calculated. The data were analyzed by using nonlinear regression to generate IC50 values. Human LCK enzymatic assay

[2] = molecular target: T2, LCK (Homo sapiens, UniProt P06239); assay: Human LCK enzymatic assay (AlphaScreen, Poly (Glu4-Tyr) substrate); assay type: biochemical; details: 100 uM ATP; read-out: LCK IC50 (uM) COFACTOR: 100 uM ATP
T2 construct: purchased ProQinase
T2 sequence (P06239 whole entry): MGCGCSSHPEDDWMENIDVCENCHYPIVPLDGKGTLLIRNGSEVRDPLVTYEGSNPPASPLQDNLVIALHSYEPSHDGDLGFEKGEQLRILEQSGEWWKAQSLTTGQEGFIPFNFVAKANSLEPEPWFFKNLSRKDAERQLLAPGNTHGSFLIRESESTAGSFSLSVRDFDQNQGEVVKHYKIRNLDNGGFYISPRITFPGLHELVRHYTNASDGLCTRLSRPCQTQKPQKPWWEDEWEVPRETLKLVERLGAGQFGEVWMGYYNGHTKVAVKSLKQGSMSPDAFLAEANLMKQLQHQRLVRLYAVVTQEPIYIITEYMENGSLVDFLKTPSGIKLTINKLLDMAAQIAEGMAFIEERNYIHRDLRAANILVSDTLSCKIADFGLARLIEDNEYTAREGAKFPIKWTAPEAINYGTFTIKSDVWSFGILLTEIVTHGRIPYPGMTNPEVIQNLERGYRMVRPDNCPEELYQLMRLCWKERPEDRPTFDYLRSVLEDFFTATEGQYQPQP
Method: This assay measures the ability of LCK to phosphorylate a biotinylated peptide containing multiple tyrosine residues in vitro. The LCK enzyme was purchased from ProQinase. The biotinylated Poly (Glu4-Tyr) peptide substrate was purchased from Sigma-Aldrich. The LCK enzyme assay was performed using 1 ng LCK enzyme and 30 nM Poly (Glu4-Tyr) substrate in the presence of 25 mM Hepes pH 7.5, 10 mM MnCl2, 50 mM NaCl, 0.01% Tween-20, 0.5 mM DTT, 0.01% BSA, and 100 μM ATP. A 19 μL volume of the above reaction mixture was added to wells of 384-well AlphaPlate (PerkinElmer GA, USA) containing 1 μL of various concentrations of test compound or DMSO vehicle and incubated for 40 minutes at 25° C. 16 wells containing all the components of reaction mixture and 5% DMSO served as high control. 16 wells containing all the components except ATP of reaction mixture and 5% DMSO served as low control. The enzymatic reaction was stopped by the addition of 5 μL stop/detection mixture containing 25 mM Hepes pH 7.5 100 mM EDTA, and 10 μg/mL streptavidin-coated AlphaScreen donor beads (PerkinElmer GA, USA) and incubated for 20 minutes. A 5 μL mixture containing 25 mM Hepes pH 7.5, 100 mM EDTA, and 10 μg/mL anti-phosphotyrosine antibody PY20-coated AlphaScreen acceptor beads (PerkinElmer GA, USA) was added and the plate was incubated for 1 hour at room temperature. The streptavidin donor beads bind to the biotin moiety on the biotinylated Poly (Glu4-Tyr) substrate and the PY20 antibody-coated acceptor beads bind to tyrosine residues on the substrate that have been directly phosphorylated by LCK. Upon excitation of these beads with laser light at 680 nm, singlet oxygen was produced. This singlet oxygen was rapidly quenched, unless the AlphaScreen PY20 acceptor beads are in close proximity, in which case a proximity signal can be measured at 580 nm. In the presence of catalytic activity, there was a very strong proximity signal. Selective LCK inhibitors affect a decrease in this proximity signal through a decrease in phosphorylation of the Poly (Glu4-Tyr) substrate. The percentage of inhibition at individual concentrations relative to high and low controls was calculated. The data were analyzed by using nonlinear regression to generate IC50 values.

[3] = tested on: Jurkat/NFAT-RE cells; assay: NFAT reporter assay (luciferase) in Jurkat/NFAT-RE cells; assay type: cell-based; details: Homo sapiens, 0.02 μg/mL anti-CD3 antibody OKT3, 3 hours, read-out: Jurkat EC50 (uM) Cell Assay: Reporter Cell Variant: NFAT response element
Excerpt: To assess the ability of CSK inhibitors to activate LCK and stimulate signaling downstream of the T-cell receptor, an NFAT reporter assay was used for monitoring of LCK activation in cells through the activation of LCK-dependent signaling through a reporter assay. The Jurkat T-cell cell line was genetically engineered to express a luciferase reporter that is regulated by the NFAT-response element. (Clipstone, N. A., & Crabtree, G. R., Identification of calcineurin as a key signalling enzyme in T-lymphocyte activation, Nature, 357(6380), 695-697, 1992). Stimulation of the T-cell receptor with anti-CD3 antibody increases the expression of the luciferase reporter. To test the ability of CSK inhibitors to stimulate LCK and downstream T-cell signaling, the cells were stimulated with a suboptimal concentration of anti-CD3 ligand, to measure the ability of CSK inhibitors to increase luciferase expression.
This assay measures the signaling activity downstream of the T-cell receptor, specifically the ability of the NFAT transcription factor to be translocated to the nucleus and induce expression of a firefly luciferase gene. Jurkat/NFAT-RE cells stably expressing the NFAT reporter construct were purchased from BPS Bioscience. The assay was performed by plating 40,000 Jurkat/NFAT-RE cells in a 50 μL volume of serum-free growth media in a 96-well plate. Following an overnight incubation, the cells were treated with CSK inhibitors and 0.02 μg/mL anti-CD3 antibody OKT3 (BD Bioscience) for 3 hours at 37° C. High control wells were stimulated with DMSO and 5 μg/mL OKT3 to maximally stimulate the NFAT reporter, and low control wells were stimulated with DMSO and 0.02 μg/mL OKT3. Following the 3 hour incubation, the cells were assayed for viability using CellTiter-Fluor™ (Promega), and for luciferase expression using ONE-Glo™ (Promega). The ONE-Glo™ signal was normalized to the CellTiter-Fluor™ signal, and the percentage of NFAT activation relative to high and low controls was calculated. The data were analyzed by using nonlinear regression to generate EC50 values. Selective CSK inhibitors affect an increase in luciferase expression in the presence of low level stimulation of the T-cell receptor.

IC50 [1]	IC50 [2]	EC50 [3]	SMILES
0.5 to 5 µM	5 to 100 µM	5 to 100 µM	O=c1c(-c2c(F)ccc(NS(=O)(=O)c3cc4scnc4cc3F)c2F)cc2cnccc2n1CC1CC1 [P-0025, N-(3-(1-(cyclopropylmethyl)-2-oxo-1,2-dihydro-1,6-naphthyridin-3-yl)-2,4-difluorophenyl)-5-fluorobenzo[d]thiazole-6-sulfonamide]
0.001 to 0.5 µM	5 to 100 µM	0.5 to 5 µM	Nc1cc2c(cn1)cc(-c1c(F)ccc(NS(=O)(=O)c3ccc4ncsc4c3)c1F)c(=O)n2C1CC1 [P-0026, N-(3-(7-amino-1-cyclopropyl-2-oxo-1,2-dihydro-1,6-naphthyridin-3-yl)-2,4-difluorophenyl)benzo[d]thiazole-6-sulfonamide]
